Entries after “also recorded” stand apart in the source; their conditions may differ. Read-outs that look alike come from different tables or passages of the source.
Tests used:
clinical = conditions: human, in vivo, 800 mg
[1] = rat, 4-week, cited from earlier work
M-NFS-60 cells = assay: cells; format: cell-based; conditions: Mus musculus
[2] = human, in vivo, 800 mg
[3] = rat, six-month, cited from earlier work
[4] = human; recommended dose 800 mg daily; cited from earlier work
TGCT or DTGCT = conditions: cited from earlier work

## FC(F)(F)c1ccc(CNc2ccc(Cc3c[nH]c4ncc(Cl)cc34)cn2)cn1 [pexidartinib]
clinical
  AUC(0-t): 155 µg·h/mL
[1]; 20, 60, 200 mg/kg/day oral gavage
  NOAEL: could not be established
[1]; all dose groups
  liver enzymes: increased liver enzymes
  liver histology finding: dose-related hepatocellular centrilobular hypertrophy
M-NFS-60 cells; read-out: average IC50, inhibition of M-NFS-60 cell proliferation, 10 ng/mL CSF1
  IC50: 15.7 nM
M-NFS-60 cells; read-out: average IC50, inhibition of M-NFS-60 cell proliferation, 1,000 ng/mL CSF1
  IC50: 59.6 nM
[2]
  AUC0-24 clinical exposure (estimated from label AUC0-12): 154.93 µg·h/mL
[3]; 60 mg/kg daily
  deaths of main study animals due to treatment-related immunocompromise: 3
[3]; 60 mg/kg, female
  liver findings in female rats: biliary cysts and increased gamma-glutamyl transferase (GGT) levels
[3]; ≥20 mg/kg
  liver findings: hemosiderin deposition and necrotizing inflammation
[4]
  AUC0-12 clinical exposure cited in the label: 77.465 µg·h/mL
TGCT or DTGCT; ENLIVEN phase 3 randomized trial, maintenance dose 400 mg twice daily
  ORR: 39%
TGCT or DTGCT; TGCT or DTGCT patients, 1000 mg daily, phase 2 clinical study
  overall response rate (ORR): 52%
TGCT or DTGCT; TGCT patients, clinical use
  maximum tolerated dose: 400 mg twice daily
TGCT or DTGCT; patients
  liver injury / hepatotoxicity: mixed or cholestatic hepatotoxicity; also recorded: black box warning of hepatotoxicity
  maximum tolerated dose and chosen phase 2 dose: 1000 mg per day
